Results as given in publication PMC7356692, “Structural Basis of Specific Glucoimidazole and Mannoimidazole Binding by Os3BGlu7” (Biomolecules, 2020).

Biological target: T1, Os3BGlu7 (Oryza sativa, UniProt Q75I93)
T1 construct: gene BGLU7; recombinant from E. coli Origami (DE3); IMAC, fusion tag removed with enterokinase; mature enzyme; two molecules per asymmetric unit
Assay: X-ray crystallography, […] Å
Type: binding
Details: crystal soaked in 10 mM mannoimidazole preparation (GIm as contaminant or isomerization product); -1 subsite; pH 6.7

T1 sequence (Q75I93 29-504): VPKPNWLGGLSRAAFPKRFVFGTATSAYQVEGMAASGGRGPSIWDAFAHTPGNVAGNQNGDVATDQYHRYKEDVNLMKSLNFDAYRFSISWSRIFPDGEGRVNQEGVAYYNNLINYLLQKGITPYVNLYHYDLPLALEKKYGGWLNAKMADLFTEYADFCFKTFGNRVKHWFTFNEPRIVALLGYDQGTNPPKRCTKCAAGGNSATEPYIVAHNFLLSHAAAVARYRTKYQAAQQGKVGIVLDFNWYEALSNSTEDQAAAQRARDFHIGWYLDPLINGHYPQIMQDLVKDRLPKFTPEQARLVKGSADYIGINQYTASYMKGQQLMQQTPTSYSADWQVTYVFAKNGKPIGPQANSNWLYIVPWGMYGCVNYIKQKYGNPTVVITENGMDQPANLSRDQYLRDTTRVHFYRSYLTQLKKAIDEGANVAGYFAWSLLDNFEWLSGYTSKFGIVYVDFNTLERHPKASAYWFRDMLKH

OC[C@@H]1[C@@H](O)[C@H](O)[C@@H](O)c2nccn21 [glucoimidazole]
X-ray crystallography, 2.3 Å: electron densities of ligand in the active sites of both protein molecules in the asymmetric unit
